Among the data in ChEMBL document CHEMBL1142656, “Identification of 3-(acylamino)azepan-2-ones as stable broad-spectrum chemokine inhibitors resistant to metabolism in vivo” (2005) are EC50 values, retold here.

Each structure is given as a SMILES string.

This test relates to THP-1. In words: In vitro activity to inhibit MCP-1-induced leukocyte migration of THP-1 cells. In kind it is functional. Particulars: Homo sapiens, read-out: ED50 (the source's name).
On to `C=CCCCCCCCCC(=O)N[C@H]1CCCNC1=O`, for which the EC50 was determined as 100 nM. Next, `C=CCCCCCCCCC(=O)N[C@H]1CCC(=O)N(C)C1=O`: 33 nM; `C#CCCCCCCCCC(=O)N[C@H]1CCCCNC1=O`: 10 nM; `CCCCCCCCCCC(=O)N[C@H]1CCCCNC1=O`: 50 nM. Next, `CCCCCCCCCCC(=O)N[C@H](CCC(=O)O)C(N)=O`: 40000 nM; `CCCCCC/C=C\CCCCCCCC(=O)N[C@H]1CCCCNC1=O`: 3 nM; `C=CCCCCCCCCC(=O)N[C@@H]1CCC(=O)NC1=O`: 250 nM. In the case of `CCCCCCCCCCC(=O)N[C@@H](CCC(=O)O)C(=O)O`, the EC50 was 10000 nM. Next, `CCCCCCCCCCCCCCCC(=O)N[C@H]1CCCCNC1=O`: 3 nM; `C=CCCCCCCCCC(=O)N[C@H]1CCCCNC1=O`: 40 nM; `C=CCCCCCCCCC(=O)N[C@H]1CCNC1=O`: 245 nM.

As to `CCCCCCCCCCCC(=O)N[C@H]1CCCCNC1=O`, the EC50 was 15 nM.

Regarding `CCCCCCCCCCC(=O)N[C@@H](CCC(N)=O)C(=O)O`, the EC50 came to 30000 nM. In the case of `CCCCCCCCCCCCCC(=O)N[C@H]1CCCCNC1=O`, the EC50 came to 5 nM. For `C=CCCCCCCCCC(=O)N[C@H]1CCC(=O)NC1=O` the value was 5 nM; for `CCCCCCCC/C=C\CCCCCCCC(=O)N[C@H]1CCCCNC1=O`, 3 nM.

Take `CCCCCCCC/C=C\CCCCCCCC(=O)N[C@@H]1CCCCNC1=O`: the EC50 was 30 nM. For `CCCCCCCCCCC(=O)N[C@H](CCC(N)=O)C(=O)O` the value was 50000 nM. Next, `CCCCCCCCCCC(=O)N[C@H](CCC(=O)O)C(=O)O`: 25000 nM; `CCCCCCCCCCC(=O)N[C@@H](CCC(=O)O)C(N)=O`: 15000 nM; `CCCCCCCCCCCCCCCC(=O)N[C@@H]1CCCCNC1=O`: 40 nM. For `CCCCCCCCCCC(=O)NC1CCC(=O)NC1=O` (single isomer, unassigned) the value was 10 nM; for `N[C@@H](CCCC(=O)O)C(=O)O` [(S)-2-AMINOADIPIC ACID], over 100000 nM; for `N[C@H](CCC(=O)O)C(=O)O` [D-GLUTAMATE], over 100000 nM.
